The target of assay [1] is T1, LRRK2^KW (Homo sapiens, UniProt Q5S007).
T1 construct: LRRK2 R1847 to E2527; His6-Z-tag (TEV cleavable) (N, cleaved yes); host or cells: Sf9 insect cells (baculovirus)
T1 sequence (Q5S007 1847-2527): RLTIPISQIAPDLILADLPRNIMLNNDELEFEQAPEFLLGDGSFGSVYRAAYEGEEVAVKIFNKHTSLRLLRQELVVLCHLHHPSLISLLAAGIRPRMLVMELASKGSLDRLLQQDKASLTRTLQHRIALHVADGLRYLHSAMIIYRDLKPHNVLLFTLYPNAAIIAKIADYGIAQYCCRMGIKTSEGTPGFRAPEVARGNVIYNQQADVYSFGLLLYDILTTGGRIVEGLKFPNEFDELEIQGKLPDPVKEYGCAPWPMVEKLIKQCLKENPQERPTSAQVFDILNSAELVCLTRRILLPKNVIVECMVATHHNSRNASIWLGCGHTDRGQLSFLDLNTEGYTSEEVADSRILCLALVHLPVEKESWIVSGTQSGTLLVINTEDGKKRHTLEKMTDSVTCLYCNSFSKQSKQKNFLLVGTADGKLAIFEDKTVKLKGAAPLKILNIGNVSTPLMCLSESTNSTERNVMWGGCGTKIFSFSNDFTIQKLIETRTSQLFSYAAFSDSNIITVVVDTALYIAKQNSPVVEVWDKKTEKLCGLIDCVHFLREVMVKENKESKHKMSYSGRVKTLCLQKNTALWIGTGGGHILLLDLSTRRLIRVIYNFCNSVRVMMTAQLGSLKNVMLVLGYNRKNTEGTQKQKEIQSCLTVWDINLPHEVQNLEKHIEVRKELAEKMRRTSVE
Briefly: DSF thermal stabilization of LRRK2^KW. Type of assay: binding. Conditions: DSF, LRRK2^KW, 10 μM inhibitor. On the procedure:
To characterize binding between small molecules and LRRK2^KW, induced thermal stabilization was measured by DSF according to previously established protocols ([47]). In brief, LRRK2^KW was diluted to 4 μM in 20 mM Hepes (pH 7.4), 150 mM NaCl, 0.5 mM TCEP, 0.5% glycerol, 20 μM GDP, and 2.5 mM MgCl2, and SYPRO Orange was added (1:1000, MilliporeSigma). Inhibitor (10 μM) to be tested was added to a final sample volume of 20 μl per well of a 96-well plate (white, Starlab). […] The fluorescence was plotted against the temperature, and the melting point (Tm) was determined as the minimum of the first derivative relative to the control.

Assay [2] concerns the target T2, LRRK2^RCKW (Homo sapiens, UniProt Q5S007).
T2 construct: LRRK2 R1327 to E2527; His6-Z-tag (TEV cleavable) (N, cleaved yes); host or cells: Sf9 insect cells (baculovirus)
T2 sequence (Q5S007 1327-2527): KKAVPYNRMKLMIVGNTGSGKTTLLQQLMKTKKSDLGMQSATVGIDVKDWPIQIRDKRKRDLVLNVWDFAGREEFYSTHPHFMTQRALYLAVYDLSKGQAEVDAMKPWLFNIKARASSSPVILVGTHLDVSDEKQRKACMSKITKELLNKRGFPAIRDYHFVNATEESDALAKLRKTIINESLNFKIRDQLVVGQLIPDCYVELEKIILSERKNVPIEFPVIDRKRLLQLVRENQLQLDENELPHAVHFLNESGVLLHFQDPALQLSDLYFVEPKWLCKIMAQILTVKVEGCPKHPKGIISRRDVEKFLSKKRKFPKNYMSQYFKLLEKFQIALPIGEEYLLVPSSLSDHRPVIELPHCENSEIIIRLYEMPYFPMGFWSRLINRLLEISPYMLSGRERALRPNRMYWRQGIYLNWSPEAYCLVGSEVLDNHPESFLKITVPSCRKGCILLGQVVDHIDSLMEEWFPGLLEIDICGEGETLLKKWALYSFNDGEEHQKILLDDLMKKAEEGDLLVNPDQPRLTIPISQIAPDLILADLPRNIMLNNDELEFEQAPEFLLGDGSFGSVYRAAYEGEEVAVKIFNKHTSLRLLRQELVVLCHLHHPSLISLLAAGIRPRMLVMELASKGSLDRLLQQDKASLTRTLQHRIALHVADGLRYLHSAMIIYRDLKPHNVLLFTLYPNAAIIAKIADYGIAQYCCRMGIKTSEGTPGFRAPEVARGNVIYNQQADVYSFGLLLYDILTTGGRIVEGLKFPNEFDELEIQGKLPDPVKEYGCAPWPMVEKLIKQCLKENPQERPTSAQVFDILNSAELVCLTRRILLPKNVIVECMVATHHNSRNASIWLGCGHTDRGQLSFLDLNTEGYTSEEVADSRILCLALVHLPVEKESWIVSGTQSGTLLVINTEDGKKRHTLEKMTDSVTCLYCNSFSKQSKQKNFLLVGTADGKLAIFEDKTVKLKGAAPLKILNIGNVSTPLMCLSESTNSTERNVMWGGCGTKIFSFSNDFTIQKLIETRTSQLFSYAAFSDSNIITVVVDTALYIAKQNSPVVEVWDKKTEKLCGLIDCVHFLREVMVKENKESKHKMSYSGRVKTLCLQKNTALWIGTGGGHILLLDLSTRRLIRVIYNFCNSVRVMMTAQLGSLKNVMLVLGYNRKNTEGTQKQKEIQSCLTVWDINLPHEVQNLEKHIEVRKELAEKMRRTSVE
Briefly: Biochemical LRRK2 activity assay (PhosphoSense, AssayQuant SOX peptide AQT0615). The conditions noted are these: for IC50: LRRK2^RCKW kinase activity, in vitro; for normalized response (LRRK2 activity): normalized to 0% (no kinase) and 100% (no inhibitor) control, two singlicate columns per compound. As for the experimental part:
Two wells per compound were used as 0% (without protein and compound) and 100% (without compound) control. […] The 0% control wells were filled with 10 μl of pure reaction buffer. With the ECHO, 5 nl of 100 mM ATP was pipetted into each well, the plates were centrifuged at 1500g for 2 min, and the reaction was incubated at room temperature for 4 hours. The fluorescence of the SOX-peptide after 360-nm excitation was measured at 487-nm emission with a PHERAstar plate reader (BMG Labtech). The IC50 values were calculated from a nonlinear regression of the log[inhibitor] versus the normalized response with GraphPad Prism 8 (www.graphpad.com/, RRID:SCR_002798).

Values joined by “and” are separate entries in the source; they are usually repeats but may differ in a detail not shown here. Identical values can stand only once.

`CN1CCc2cc(NC(=O)C3(C(=O)Nc4cccc(-c5c[nH]c6ncnc(N7CCOCC7)c56)c4)CC3)ccc2C1` [Compound 10]: the “∆Tm (K)” value in assay [1] is 4.3 K. For the same compound, it took 3180 ± 134 nM to reach half-maximal inhibition in assay [2] (IC50). Also, the “normalized response (LRRK2 activity)” value in assay [2] (log[inhibitor(mol)] -5.12494) was 28.5996% and 28.8703%; in assay [2] (log[inhibitor(mol)] -5.60206), 54.9087% and 59.3757%; in assay [2] (log[inhibitor(mol)] -6.30103), 85.68% and 83.1467%; in assay [2] (log[inhibitor(mol)] -6.90309), 102.663% and 58.1284%; in assay [2] (log[inhibitor(mol)] -7.30103), 103.229% and 99.9077%; in assay [2] (log[inhibitor(mol)] -7.60206) it was 100.894% and 96.1562%. Further, the “normalized response (LRRK2 activity)” value in assay [2] (log[inhibitor(mol)] -8.09691) was 96.775% and 100.111%; in assay [2] (log[inhibitor(mol)] -8.61979), 99.9803% and 105.134%; in assay [2] (log[inhibitor(mol)] -9.09691), 138.579% and 106.168%; in assay [2] (log[inhibitor(mol)] -9.39794), 136.224% and 108.416%.

In the case of `COc1cc(S(C)(=O)=O)ccc1Nc1nc(N(C)C)c2c(-c3cccc(NC(=O)Nc4cc(C(C)(C)C)nn4-c4ccc(C)cc4)c3)c[nH]c2n1` [Compound 33], the “∆Tm (K)” value in assay [1] worked out at 1.0 K. In addition, the “normalized response (LRRK2 activity)” value was 124.559% and 124.399% in assay [2] (log[inhibitor(mol)] -7.30103); 116.776% and 118.915% in assay [2] (log[inhibitor(mol)] -7.60206); 103.198% and 104.843% in assay [2] (log[inhibitor(mol)] -8.09691); 103.872% and 98.2729% in assay [2] (log[inhibitor(mol)] -8.61979); 102.243% and 101.201% in assay [2] (log[inhibitor(mol)] -9.09691); 101.448% and 104.602% in assay [2] (log[inhibitor(mol)] -9.39794).

Turning to `COc1cc(C(=O)N2CCOCC2)c(F)cc1Nc1nc(N(C)C)c2c(-c3cccc(NC(=O)Nc4cc(C(C)(C)C)nn4-c4ccc(C)cc4)c3)c[nH]c2n1` [Compound 34], in assay [1], the “∆Tm (K)” value amounted to 0.0 K. For the same compound, it took 2820 ± 1700 nM to reach half-maximal inhibition in assay [2] (IC50). The “normalized response (LRRK2 activity)” value was 44.1151% and 42.1018% in assay [2] (log[inhibitor(mol)] -4.82391); 30.8718% and 33.6962% in assay [2] (log[inhibitor(mol)] -5.12494); 50.116% and 50.3008% in assay [2] (log[inhibitor(mol)] -5.60206); 30.7392% and 30.2826% in assay [2] (log[inhibitor(mol)] -6.30103); 79.3769% and 75.1697% in assay [2] (log[inhibitor(mol)] -6.90309); 94.0291% and 93.4725% in assay [2] (log[inhibitor(mol)] -7.30103). Further, the “normalized response (LRRK2 activity)” value in assay [2] (log[inhibitor(mol)] -7.60206) is 99.2059% and 99.0146%; in assay [2] (log[inhibitor(mol)] -8.09691), 90.4133% and 94.0334%; in assay [2] (log[inhibitor(mol)] -8.61979) it was 94.5074% and 96.3707%; in assay [2] (log[inhibitor(mol)] -9.09691), 98.4515% and 93.6442%; in assay [2] (log[inhibitor(mol)] -9.39794), 99.1494% and 99.7973%.

With `COc1cc(S(C)(=O)=O)ccc1Nc1nc(N(C)C)c2c(-c3cccc(NC(=O)Nc4cc(C(C)(C)C)nn4-c4ccc5ncccc5c4)c3)c[nH]c2n1` [Compound 35], the “∆Tm (K)” value in assay [1] turned out to be 1.5 K. Besides, the “normalized response (LRRK2 activity)” value in assay [2] (log[inhibitor(mol)] -6.90309) is 115.444% and 117.007%; in assay [2] (log[inhibitor(mol)] -7.30103), 105.55% and 105.293%; in assay [2] (log[inhibitor(mol)] -7.60206), 108.325% and 105.046%; in assay [2] (log[inhibitor(mol)] -8.09691) it was 100.105% and 95.8379%; in assay [2] (log[inhibitor(mol)] -8.61979), 94.7466% and 91.6315%; in assay [2] (log[inhibitor(mol)] -9.09691), 101.92% and 85.7909%. Further, the “normalized response (LRRK2 activity)” value in assay [2] (log[inhibitor(mol)] -9.39794) was 98.761% and 96.3918%.

The record behind these values is article PMC12136037, “Type II kinase inhibitors that target Parkinson’s disease–associated LRRK2” (Science Advances, 2025).
